Numbered stars: 1 amine (or outer) side, 2 acyl side, 3 side chain; on linkers, the order of the positions; unused ones are H or OH. Bridge positions count the residues as written; N and C are the ends. Square brackets hold non-standard residues; d marks the D form. Peptide text beside a SMILES is read from it. * marks the point of attachment. hPhe(3-Cl-4-CF3) = N[C@@H](CCc1ccc(C(F)(F)F)c(Cl)c1)C(=O)O; NMePhe(4-CF3) = CN[C@@H](Cc1ccc(C(F)(F)F)cc1)C(=O)O; NMeAla(4-thiazolyl) = CN[C@@H](Cc1cscn1)C(=O)O; X20 = Cc1cncc(C[C@@H](C(=O)[*:2])N(C)[*:1])c1; NMePhe(4-Cl) = CN[C@@H](Cc1ccc(Cl)cc1)C(=O)O; NMePhe(4-Me) = CN[C@@H](Cc1ccc(C)cc1)C(=O)O; NMePhe(3-F) = CN[C@@H](Cc1cccc(F)c1)C(=O)O; Phe(2-OMe) = COc1ccccc1C[C@H](N)C(=O)O; Phe(3-I) = N[C@@H](Cc1cccc(I)c1)C(=O)O; NMeCha = CN[C@@H](CC1CCCCC1)C(=O)O; NMeChg = CN[C@H](C(=O)O)C1CCCCC1; N(CH2CH2)2CF2 = FC1(F)CCN(*)CC1; NMeD = CN[C@@H](CC(=O)O)C(=O)O; NMeL = CN[C@@H](CC(C)C)C(=O)O; NMeV = CN[C@H](C(=O)O)C(C)C; d(β3hA) = C[C@@H](N)CC(=O)O; NMeAib = CNC(C)(C)C(=O)O; Nle = CCCC[C@H](N)C(=O)O; Piperidide = C1CCN(*)CC1; Ac5c = NC1(C(=O)O)CCCC1; Aze = O=C(O)[C@@H]1CCN1; Nva = CCC[C@H](N)C(=O)O; Abu = CC[C@H](N)C(=O)O; Ac3c = NC1(C(=O)O)CC1; Aib = CC(C)(N)C(=O)O; NEtG = CCNCC(=O)O; Sar = CNCC(=O)O
The compounds below were run on Human pancreatic cancer cell line AsPC-1 (G12D mutation Kras) (assay: AsPC-1 cell growth inhibition (AsPC-1 CGI)). Details: read-out: AsPC-1 cell growth inhibition, 50% growth inhibitory concentration (IC50 value); 96 hours, CellTiter-Glo, values classified in ranges.
Format: cell-based
Experimental: Test compounds were serially dilated with dimethyl sulfoxide, and 200 nL was then dispensed to a U-bottom 96-well plate using Labcyte Echo. […] The cell suspension was dispensed to a. plate containing a test compound at 100 μL per well and incubated at 37° C. in a 5% carbon dioxide gas incubator. 96 hours later, 80 μL of CellTiter-Glo (Promega) was added to each well and fluorescence was measured.

Compound	IC50 [nM]
CC[C@@H]1NC(=O)[C@H](Cc2cccc(I)c2)NC(=O)CN(C)C(=O)[C@H](Cc2ccc(Cl)cc2)N(C)C(=O)CN(C)C(=O)CN(C)C(=O)[C@H]([C@@H](C)CC)NC(=O)[C@H](CC(C)C)N(C)C(=O)C[C@@H](C(=O)N2CCCCC2)N(C)C(=O)[C@H](CC(C)C)NC(=O)C(C)(C)N(C)C1=O [Compound 457] ([NMeL]I[Sar][Sar][NMePhe(4-Cl)][Sar][Phe(3-I)][Abu][NMeAib]L[NMeD]-Piperidide; lactam N-11)	> 500
CC[C@H](C)[C@@H]1NC(=O)[C@H](CC(C)C)N(C)C(=O)C[C@@H](C(=O)N2CCCCC2)N(C)C(=O)[C@H](CC(C)C)NC(=O)C(C)(C)N(C)C(=O)[C@H](Cc2ccccc2OC)NC(=O)[C@H](Cc2cccc(I)c2)NC(=O)CN(C)C(=O)[C@H](Cc2ccc(C)cc2)N(C)C(=O)[C@@H]2CCN2C(=O)CN(C)C1=O [Compound 459] ([NMeL]I[Sar][Aze][NMePhe(4-Me)][Sar][Phe(3-I)][Phe(2-OMe)][NMeAib]L[NMeD]-Piperidide; lactam N-11)	> 500
CC[C@H](C)[C@@H]1NC(=O)[C@H](CC(C)C)N(C)C(=O)C[C@@H](C(=O)N2CCCCC2)N(C)C(=O)[C@H](C(C)C)N(C)C(=O)C(C)(C)NC(=O)[C@H](CC(=O)N2CCC(F)(F)CC2)N(C)C(=O)[C@H](CCc2ccc(C(F)(F)F)c(Cl)c2)NC(=O)CN(C)C(=O)[C@H](CC2CCCCC2)N(C)C(=O)CN(C)C(=O)CN(C)C1=O [Compound 463] ([NMeL]I[Sar][Sar][NMeCha][Sar][hPhe(3-Cl-4-CF3)][NMeD](N(CH2CH2)2CF2)[Aib][NMeV][NMeD]-Piperidide; lactam N-11)	> 500
CC[C@H](C)[C@@H]1NC(=O)[C@H](CC(C)C)N(C)C(=O)C[C@@H](C(=O)N2CCCCC2)N(C)C(=O)[C@H](C(C)C)N(C)C(=O)C2(CC2)NC(=O)[C@@H]2CCCN2C(=O)[C@H](CCc2ccc(C(F)(F)F)c(Cl)c2)NC(=O)CN(C)C(=O)[C@H](CC2CCCCC2)N(C)C(=O)CN(C)C(=O)CN(C)C1=O [Compound 468] ([NMeL]I[Sar][Sar][NMeCha][Sar][hPhe(3-Cl-4-CF3)]P[Ac3c][NMeV][NMeD]-Piperidide; lactam N-11)	> 500
CC[C@H](C)[C@@H]1NC(=O)[C@H](CC(C)C)N(C)C(=O)C[C@@H](C(=O)N2CCCCC2)N(C)C(=O)[C@H](C2CCCCC2)N(C)C(=O)C2(CCCC2)NC(=O)[C@H](Cc2cncc(C)c2)N(C)C(=O)[C@H](CCc2ccc(C(F)(F)F)c(Cl)c2)NC(=O)CN(C)C(=O)[C@H](CC2CCCCC2)N(C)C(=O)[C@@H]2CCN2C(=O)CN(C)C1=O [Compound 477] ([NMeL]I[Sar][Aze][NMeCha][Sar][hPhe(3-Cl-4-CF3)][X20][Ac5c][NMeChg][NMeD]-Piperidide; lactam N-11)	> 500
CCCC[C@@H]1NC(=O)[C@H](Cc2cccc(I)c2)NC(=O)CN(C)C(=O)[C@H](Cc2ccc(Cl)cc2)N(C)C(=O)CN(C)C(=O)CN(C)C(=O)[C@H]([C@@H](C)CC)NC(=O)[C@H](CC(C)C)N(C)C(=O)C[C@@H](C(=O)N2CCCCC2)N(C)C(=O)[C@H](CC(C)C)NC(=O)[C@H](Cc2cccc(F)c2)N(C)C1=O [Compound 483] ([NMeL]I[Sar][Sar][NMePhe(4-Cl)][Sar][Phe(3-I)][Nle][NMePhe(3-F)]L[NMeD]-Piperidide; lactam N-11)	> 500
CCC[C@@H]1NC(=O)[C@H](CC(C)C)N(C)C(=O)C[C@@H](C(=O)N2CCCCC2)N(C)C(=O)[C@H](C2CCCCC2)N(C)C(=O)C2(CCCC2)NC(=O)[C@@H]2CCCN2C(=O)[C@H](CCc2ccc(C(F)(F)F)c(Cl)c2)NC(=O)CN(C)C(=O)[C@H](CC2CCCCC2)N(C)C(=O)CN(C)C(=O)CN(C)C1=O [Compound 495] ([NMeL][Nva][Sar][Sar][NMeCha][Sar][hPhe(3-Cl-4-CF3)]P[Ac5c][NMeChg][NMeD]-Piperidide; lactam N-11)	> 500
CCCC[C@@H]1NC(=O)[C@H](Cc2cccc(I)c2)NC(=O)CN(C)C(=O)[C@H](Cc2ccc(Cl)cc2)N(C)C(=O)CN(C)C(=O)CN(C)C(=O)[C@H]([C@@H](C)CC)NC(=O)[C@H](CC(C)C)N(C)C(=O)C[C@@H](C(=O)N2CCCCC2)N(C)C(=O)[C@H](CC(C)C)NC(=O)[C@H](Cc2ccc(C(F)(F)F)cc2)N(C)C1=O [Compound 498] ([NMeL]I[Sar][Sar][NMePhe(4-Cl)][Sar][Phe(3-I)][Nle][NMePhe(4-CF3)]L[NMeD]-Piperidide; lactam N-11)	> 500
CC[C@H](C)[C@@H]1NC(=O)[C@H](CC(C)C)N(C)C(=O)C[C@@H](C(=O)N2CCCCC2)N(C)C(=O)[C@H](C2CCCCC2)N(C)C(=O)C2(CCCC2)NC(=O)[C@H](Cc2cscn2)N(C)C(=O)[C@H](CCc2ccc(C(F)(F)F)c(Cl)c2)NC(=O)CN(C)C(=O)[C@H](CC2CCCCC2)N(C)C(=O)CN(C)C(=O)CN(C)C1=O [Compound 500] ([NMeL]I[Sar][Sar][NMeCha][Sar][hPhe(3-Cl-4-CF3)][NMeAla(4-thiazolyl)][Ac5c][NMeChg][NMeD]-Piperidide; lactam N-11)	> 500
CC[C@H](C)[C@@H]1NC(=O)[C@H](CC(C)C)N(C)C(=O)C[C@@H](C)NC(=O)[C@H](C(C)C)N(C)C(=O)C2(CCCC2)NC(=O)[C@@H]2CCCN2C(=O)[C@H](CCc2ccc(C(F)(F)F)c(Cl)c2)NC(=O)CN(C)C(=O)[C@H](CC2CCCCC2)N(C)C(=O)CN(CC)C(=O)CN(C)C1=O [Compound 504] (cyclo([Ac5c][NMeV][d(β3hA)][NMeL]I[Sar][NEtG][NMeCha][Sar][hPhe(3-Cl-4-CF3)]P))	> 500

From patent US20240148821A1, “PHARMACEUTICAL USE OF CYCLIC PEPTIDE COMPOUND” (CHUGAI SEIYAKU KABUSHIKI KAISHA, priority 2021, published 2024)
